{
  "source": "patent US20200115688A1",
  "about": "“COMPOSITIONS AND METHODS FOR ENHANCING GENOME EDITING” (The Regents of the University of California, priority 2017, published 2020)",
  "tested_on": "Neural progenitor cells with a tdTomato reporter gene",
  "test": "Cas9 RNP genome editing in neural progenitor cells pretreated with Bafilomycin A1",
  "type": "cell-based",
  "details": "cells pretreated 1 hour before Cas9 RNPs added outside the cells; genomic DNA collected after 48 hours, target locus analyzed for Cas9-mediated targeted genomic deletions; FIG. 1",
  "method": "Neural progenitor cells with a tdTomato reporter gene were pretreated with Bafilomycin A1 for 1 hour prior to addition of Cas9 RNPs outside of the cells. After 24 hours cells were washed 2× with Heparin to remove any remaining Cas9 RNP outside the cells. After 48 hours genomicDNA was collected and the target locus analyzed for Cas9-mediated targeted genomic deletions.",
  "data": [
    {"smiles": "CO/C1=C\\C(C)=C\\[C@@H](C)[C@@H](O)[C@@H](C)C/C(C)=C/C=C/[C@H](OC)[C@@H]([C@@H](C)[C@@H](O)[C@H](C)[C@@]2(O)C[C@@H](O)[C@H](C)[C@@H](C(C)C)O2)OC1=O", "note": "[bafilomycin A1]", "values": [
      {"measurement": "editing efficiency of 0×NLS-Cas9-2×NLS", "result": "no effect"},
      {"measurement": "editing efficiency of cell penetrating Cas9 RNP, 4×NLS-Cas9-2×NLS", "result": "specifically increased"}
    ]}
  ]
}
